Data published in patent US20090098066A1, “Substituted bicyclo [2.2.2] oct/5-ene compounds and their use as cooling agents” (priority 2005, published 2009).

Tests used:
[1] = system: panelists; experiment: Cooling intensity: panelists taste aqueous solutions versus menthol at 2 ppm; assay type: in vivo; settings: aqueous solution with cooling intensity similar or slightly higher than a solution of menthol at 2 ppm
[2] = system: panelist; experiment: Application in beverage (clear lemon/lime soda), tasted by a panelist; assay type: in vivo; settings: 1.2 mL of a 0.5% ethanolic solution in a 355 mL can of clear lemon/lime soda
Protocol: 1.2 mL of a 0.5% ethanolic solution of 1-isopropyl-4-methyl-bicyclo[2.2.2]oct-5-ene-2,3-dicarbinol is added in a 355 mL (12 fl oz.) can of clear lemon/lime soda.

[3] = system: panelist; experiment: Application in chewing gum, gum stick chewed by a panelist; assay type: in vivo; settings: chewing gum with 0.10 g compound in about 100 g gum, with peppermint oil; chewed for 15 minutes
Protocol: All the ingredients are mixed in the pre-warmed gum base. The mixture is spread in thick films, cooled down and cut in sticks. A gum stick is chewed by a panelist for 15 minutes. […] No off-note was observed.

[4] = system: panelist; settings: general statement, not tested here; cited from earlier work

| Compound | Concentration [1] [ppm] | cooling sensation [2] | throat burning [2] | cooling sensation [3] | throat burning (stated as known characteristic) [4] |
| --- | --- | --- | --- | --- | --- |
| 1-Isopropyl-4-methyl-bicyclo[2.2.2]oct-5-ene-2-carboxylic acid and 1-isopropyl-4-methyl-bicyclo[2.2.2]oct-5-ene-3-carboxylic acid [Example 2] | 2 | – | – | – | – |
| CC(C)C12C=CC(C)(CC1)C(CO)C2CO (stereo not drawn) [Example 1, 1-Isopropyl-4-methyl-bicyclo[2.2.2]oct-5-ene-2,3-dicarbinol] | 2 | immediate cooling sensation in the mouth | none of the throat burning | immediate cooling sensation is felt in all areas of the mouth | – |
| CCNC(=O)C1CC2(C)C=CC1(C(C)C)CC2 (stereo not drawn) [Example 4, N-ethyl 1-Isopropyl-4-methyl-bicyclo[2.2.2]oct-5-ene-2-carboxamide] | 3 | – | – | – | – |
| CC1=CC2C(O)CC1CC2C(C)C (stereo not drawn) [Example 6, 7-isopropyl-5-methyl-bicyclo[2.2.2]oct-5-en-2-ol] | 5 | – | – | – | – |
| CCNC(=O)C1CC(C)CCC1C(C)C (stereo not drawn) [WS-3, N-ethyl p-menthanecarboxamide, reference compound] | 1.5 | – | – | – | throat burning that is characteristic |
